Reference: US9844224B2, “Bitter alkaloid containing consumables comprising bitter blockers” (GIVAUDAN SA, priority 2008, dated 2017)

Assays:
[1] = test system: alkaloid bitterness in cocoa; experiment: Tasting panel, sample vs control: reduction of alkaloid bitterness in cocoa; assay type: in vivo, human; conditions: 10% unsweetened cocoa powder in water; for bitterness of sample compared to control: room temperature
Experimental: (§1) All concentrations in % are % (wt/wt), unless otherwise indicated. A tasting panel of 5 to 8 panelists was asked to compare the bitterness of two samples (sample with trilobatin and control without) of various caffeine-containing consumables.
(§2) Different concentrations/ranges were tested, with the ones indicated being the ones with a clear bitter masking effect. While higher concentrations reach a bitter masking effect, panelists found a negative impact on the overall flavor profile at higher concentrations.
A tasting panel of 5 to 8 panelists was asked to compare and record the sensory attribute differences between two samples (sample with trilobatin and control without).
The control and sample contained 10% unsweetened cocoa powder in water (Dutch processed dark cocoa powder, commercially available from Hersheys), the sample additionally contained 0.0005% trilobatin.
The samples were served at room temperature.
A tasting panel of 5 to 8 panelists was asked to compare and record the sensory attribute differences between two samples (sample with HDG and control without).
The control and sample contained 10% unsweetened cocoa powder in water (Dutch processed dark cocoa powder, commercially available from Hersheys), the sample additionally contained 0.0020% (w/w) HDG.

[2] = test system: sweet sensitive panelists; experiment: Ranking with R-index analysis: isointensity of HDG to sucrose; assay type: in vivo, human
Experimental: (§3) All examples were performed with sweet sensitive panelists able to detect at least 0.5% of sucrose or less, unless stated otherwise. The concentration detectable by the average consumer will be higher. The results were obtained using 20 panelists in two replications.
The sucrose concentration that tastes isointense in sweetness to HDG was determined using samples of 15 ppm and 20 ppm, each of which was directly compared to a sucrose sample (sucrose solutions of 0.5%, 1%, 1.5% and 2% concentration). Fifteen milliliters of each blinded sample was presented, at room temperature, in random order to 20 sweet sensitive panelists. In two replications (over 1 session), panelists were asked to rank the solutions, from least sweet to most sweet. The data was subjected to an R-index analysis.

[3] = test system: sweet sensitive panelists; experiment: Small panel ranking of HDG in water against sucrose solutions; assay type: in vivo, human
Experimental: as §3
Further three small panel testings were performed. HDG samples were prepared in concentrations of 5 ppm, 10 ppm, 15 ppm, and 20 ppm in water. All the samples were coded (presented blind) and given to the panel in random order. The panel was also presented with sucrose solutions for comparison The panel was asked to taste each sample and rank the samples from the least sweet to most sweet.

[4] = test system: naringin and limonin bitterness; conditions: cited from earlier work
[5] = test system: alkaloid bitterness in caffeine containing energy drinks; experiment: Tasting panel, sample vs control: reduction of alkaloid bitterness in an energy drink; assay type: in vivo, human; conditions: Redbull and Xenergy energy drinks, 0.0005% trilobatin
Experimental: as §1, §2
The control and sample were caffeine containing energy drinks, the sample additionally contained 0.0005% trilobatin.
The tested caffeine containing energy drinks were sucrose-sweetened glucoronlactone and taurin containing Redbull™ energy drink, and Xenergy™ (Zyions Inc., USA) which is sucralose/Acesulfame-K sweetened and contains vitamin B, calcium, taurine and glucoronlactone.

[6] = test system: alkaloid caffeine bitterness in instant coffee; experiment: Tasting panel, sample vs control: reduction of alkaloid bitterness in coffee; assay type: in vivo, human; conditions: instant coffee in water
Experimental: as §1, §2
The sample and control were instant coffee (Nescafe, Taster's choice) in water, the sample additionally contained 0.001% (10 ppm) trilobatin. All samples/controls were presented warm to the panelists.

[7] = test system: alkaloid bitterness in brewed black tea; experiment: Tasting panel, sample vs control: reduction of alkaloid bitterness in tea; assay type: in vivo, human; conditions: 0.001% trilobatin, warm, most panelists
Experimental: as §1, §2
Sample and control were brewed black tea (tea bags, Lipton), the sample additionally contained 0.001% trilobatin which was added to the brewed tea.
Samples and controls were served warm.

[8] = test system: caffeine bitterness; experiment: Tasting panel, sample vs control: reduction of caffeine bitterness in water; assay type: in vivo, human; conditions: 200 ppm caffeine in water
Experimental: as §1, §2
The control and sample contained 0.02 or 200 ppm % caffeine in water, the sample additionally contained 0.000125 to 0.0020 trilobatin.

[9] = test system: tannin-derived bitterness (tannic acid); experiment: Tasting panel, sample vs control: tannin bitterness in water; assay type: in vivo, human; conditions: 0.05%/500 ppm tannic acid in water; 0.000125 to 0.002% trilobatin
Description: as §1
The control and sample contained 0.05%/500 ppm tannic acid in water. The samples additionally contained 0.000125 to 0.002% trilobatin.

[10] = test system: panelist trained for sweetness detection; experiment: Paired comparison of trilobatin in water versus sucrose solutions (sweetness); assay type: in vivo, human
Experimental: (§4) The sweetness detection threshold of trilobatin was determined as detailed below in 1a, 1b and 1c. All examples were performed with sweet sensitive panelists able to detect at least 0.5% of sucrose or less, unless stated otherwise. The concentration detectable by the average consumer will be higher.
Trilobatin (20 ppm, 60 ppm, 100 ppm) in water samples were evaluated for isointensity to sucrose solutions in a concentration of 0, 0.5 and 1% sucrose using a paired comparison method. Samples were paired and tasted left to right with rinsing (water) in between, by one panelist trained for sweetness detection.
The trilobatin samples were compared to either 0%, 0.5%, or 1% sucrose solutions.

[11] = test system: sweet sensitive panelists; experiment: Ranking method with R-index: isointensity of trilobatin in water to sucrose; assay type: in vivo, human
Experimental: as §4
The sensory evaluation was conducted using a ranking method. Samples at ambient temperature were randomly presented in 15 ml blind aliquots (unidentifiable by panelists). Panels consisted of 15 sweet sensitive subjects and samples were presented in 2 replications over 1 session. After tasting each sample, the mouth was rinsed thoroughly with water at ambient temperature prior to tasting the next sample.
Panelists were presented with 0.5%, 1%, 1.5% and 2% sucrose solutions in water and a fifth sample of 100 ppm trilobatin in water. Subjects were asked to rank the samples from low to high with respect to perceived sweet taste. R-indices were calculated for 100 ppm trilobatin versus either 0.5%, 1%, 1.5% or 2% sucrose.
The sensory evaluation was conducted using the method described in example 1b. The panels consisted of 7 sweet sensitive panelists. Panelists were presented with 0.5%, 1%, and 1.5% sucrose solutions in water and a fourth sample of 200 ppm trilobatin in water. Panelists were asked to rank the samples from low to high with respect to perceived sweet taste.

Question: With `COc1ccc(CCC(=O)c2c(O)cc(O[C@@H]3O[C@H](CO)[C@@H](O)[C@H](O)[C@H]3O)cc2O)cc1O` [HDG, 1-[4-(beta-D-glucopyranosyloxy)-2,6-dihydroxyphenyl]-3-(3-hydroxy-4-methoxyphenyl)-1-propanone] as the molecule, how does the bitter aftertaste ([1]; 0.0020% (w/w) HDG) read?
Answer: bitter aftertaste that remained

Question: And the cocoa aroma ([1]; 0.0020% (w/w) HDG)?
Answer: keep their cocoa aroma

Question: And the “purine alkaloid bitterness (theobromine, caffeine) in the middle” value ([1]; 0.0020% (w/w) HDG)?
Answer: reduced

Question: And the “bitterness of sample compared to control” value ([1]; 0.0020% (w/w) HDG)?
Answer: less bitter

Question: What about the “sample sweetness (HDG, 15 ppm)” value ([2]; vs 0.5% sucrose) of the same molecule?
Answer: sweeter

Question: And the “sample sweetness (HDG, 20 ppm)” value ([2]; vs 0.5% sucrose)?
Answer: Sweeter

Question: What about the “sample sweetness (HDG, 15 ppm)” value ([2]; vs 1.0% sucrose) of the same molecule?
Answer: less sweet

Question: What about the “sample sweetness (HDG, 20 ppm)” value ([2]; vs 1.0% sucrose) of the same molecule?
Answer: Isosweet

Question: And the “sample sweetness (HDG, 15 ppm)” value ([2]; vs 1.5% sucrose)?
Answer: less sweet

Question: And the “sample sweetness (HDG, 20 ppm)” value ([2]; vs 1.5% sucrose)?
Answer: Less sweet

Question: What about the “sample sweetness (HDG, 15 ppm)” value ([2]; vs 2.0% sucrose) of the same molecule?
Answer: less sweet

Question: And the “sample sweetness (HDG, 20 ppm)” value ([2]; vs 2.0% sucrose)?
Answer: Less sweet

Question: What about the Rank and taste ([3]; 5 ppm HDG in water) of the same molecule?
Answer: 1 - not sweet

Question: And the Isointensity to sucrose ([3]; 10 ppm HDG in water)?
Answer: 0.5 % sucrose

Question: And the Rank and taste ([3]; 10 ppm HDG in water)?
Answer: 2 - very slightly sweet

Question: What about the Isointensity to sucrose ([3]; 15 ppm HDG in water) of the same molecule?
Answer: 0.75% sucrose

Question: What about the Rank and taste ([3]; 15 ppm HDG in water) of the same molecule?
Answer: 3 - slightly sweet

Question: What about the Rank and taste ([3]; 20 ppm HDG in water) of the same molecule?
Answer: 4 - sweet

Question: What about the “sweetness threshold detected by sweet sensitive individuals” value ([3]; HDG in water) of the same molecule?
Answer: about 10 ppm

Question: What about the “sweet taste detection threshold relative to that of trilobatin” value ([3]; in vivo) of the same molecule?
Answer: about 10 times less

Question: And the “suppression of naringin and limonin bitterness” value ([4]; concentrations at or below the sweet taste detection threshold of HDG)?
Answer: not

Question: What about the “naringin and limonin bitterness” value ([4]; high suprathreshold concentration (ratio taste units sweetener to bitter compound at least 2:1)) of the same molecule?
Answer: suppress

Question: For `O=C(CCc1ccc(O)cc1)c1c(O)cc(O[C@@H]2O[C@H](CO)[C@@H](O)[C@H](O)[C@H]2O)cc1O` [trilobatin, 1-[4-(beta-D-glucopyranosyloxy)-2,6-dihydroxyphenyl]-3-(4-hydroxyphenyl)-1-propanone], which “alkaloid bitterness in the middle and towards the end of the temporal bitterness profile” value ([1]; 0.0005% trilobatin) is on record?
Answer: markedly reduced

Question: And the bitter aftertaste ([1]; 0.0005% trilobatin)?
Answer: no bitter aftertaste

Question: What about the cocoa aroma ([1]; 0.0005% trilobatin) of the same molecule?
Answer: keep their cocoa aroma

Question: And the “bitterness of sample compared to control” value ([1]; 0.0005% trilobatin)?
Answer: less bitter

Question: What about the bitter aftertaste [5] of the same molecule?
Answer: slight bitter aftertaste remains

Question: And the “bitterness in the middle of the temporal pattern” value [5]?
Answer: very effectively blocked

Question: What about the “bitterness of sample compared to control” value [5] of the same molecule?
Answer: less bitter

Question: What about the “concentration at which suppression of coffee flavor starts” value [6] of the same molecule?
Answer: about 20 ppm

Question: And the “concentration at which the coffee flavor is significantly affected” value [6]?
Answer: ≥ 50 ppm

Question: What about the “alkaloid caffeine bitterness in the middle and towards the end of the temporal bitterness profile” value ([6]; 0.001% (10 ppm) trilobatin) of the same molecule?
Answer: markedly reduced

Question: And the bitter aftertaste ([6]; 0.001% (10 ppm) trilobatin)?
Answer: no bitter aftertaste

Question: And the “bitterness of sample compared to control” value ([6]; 0.001% (10 ppm) trilobatin, warm)?
Answer: less bitter

Question: And the “bitterness of sample compared to control” value [7]?
Answer: slightly less bitter

Question: What about the “caffeine bitterness reduced compared to the control” value ([8]; 0.000125% (1.25 ppm) trilobatin) of the same molecule?
Answer: not

Question: And the “caffeine bitterness compared to the control” value ([8]; 0.0005% (5 ppm) up to 0.0020 (20 ppm) trilobatin)?
Answer: reduced

Question: What about the “bitterness of samples and control” value [9] of the same molecule?
Answer: similarly bitter

Question: And the “Taste of trilobatin samples compared to sucrose” value (“Taste … compared to sucrose” for short) ([10]; 20 ppm trilobatin in water vs 0% sucrose)?
Answer: isosweet

Question: And the “Taste … compared to sucrose” value ([10]; 20 ppm trilobatin in water vs 0.5% sucrose)?
Answer: notably less sweet

Question: What about the “Taste … compared to sucrose” value ([10]; 60 ppm trilobatin in water vs 0% sucrose) of the same molecule?
Answer: weakly sweeter

Question: What about the “Taste … compared to sucrose” value ([10]; 60 ppm trilobatin in water vs 0.5% sucrose) of the same molecule?
Answer: less sweet

Question: What about the “Taste … compared to sucrose” value ([10]; 100 ppm trilobatin in water vs 0% sucrose) of the same molecule?
Answer: sweeter

Question: And the “Taste … compared to sucrose” value ([10]; 100 ppm trilobatin in water vs 0.5% sucrose)?
Answer: isosweet

Question: And the “Taste … compared to sucrose” value ([10]; 100 ppm trilobatin in water vs 1% sucrose)?
Answer: less sweet

Question: What about the “sample sweetness (trilobatin, 100 ppm)” value ([11]; vs 0.5% sucrose) of the same molecule?
Answer: Isosweet

Question: What about the “sample sweetness (trilobatin, 100 ppm)” value ([11]; vs 1.0% sucrose) of the same molecule?
Answer: Less sweet

Question: What about the “sample sweetness (trilobatin, 100 ppm)” value ([11]; vs 1.5% sucrose) of the same molecule?
Answer: Less sweet

Question: And the “sample sweetness (trilobatin, 100 ppm)” value ([11]; vs 2.0% sucrose)?
Answer: Less sweet
